Results on five compounds are retold here after patent US20260327250A1, “3-ETHYLAMINO-INDOLE DIMERS AS SEROTONERGIC AGENTS USEFUL FOR THE TREATMENT OF DISORDERS RELATED THERETO” (MINDSET PHARMA INC., priority 2022, published 2026).

The target of data set [1] is T1, human 5-HT1A receptor (Homo sapiens, UniProt P08908).
T1 sequence (P08908 1-422): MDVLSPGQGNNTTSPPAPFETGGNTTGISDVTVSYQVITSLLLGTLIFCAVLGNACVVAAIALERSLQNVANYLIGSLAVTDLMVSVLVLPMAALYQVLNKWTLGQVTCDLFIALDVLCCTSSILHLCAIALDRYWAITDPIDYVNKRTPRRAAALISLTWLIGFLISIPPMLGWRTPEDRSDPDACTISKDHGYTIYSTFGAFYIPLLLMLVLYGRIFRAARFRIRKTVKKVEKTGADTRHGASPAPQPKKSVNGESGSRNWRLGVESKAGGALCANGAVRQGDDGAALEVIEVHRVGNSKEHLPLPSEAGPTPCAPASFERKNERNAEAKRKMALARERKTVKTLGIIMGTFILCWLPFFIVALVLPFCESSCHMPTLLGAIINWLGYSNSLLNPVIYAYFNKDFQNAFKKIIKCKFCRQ
The data set is described as follows: Human 5-HT1A radioligand binding assay ([3H]-8-Hydroxy-DPAT). On the procedure: The objective of this study was to evaluate the binding properties of test compounds on 5-hydroxytryptamine receptor 1A.
(§1) • 1. The assay buffer was prepared following the table below.
pH was adjusted to 7.4 followed by […] sterile filtration • 1. 8 doses of reference and test compounds were prepared starting from 10 mM stock solution as required by 5-fold serial dilutions with 100% (v/v) DMSO. • 2. UniFilter-96 GF/B Plate was Pretreated: • i. 50 μl/well of 0.5% (v/v) PEI was added to UniFilter-96 GF/B plates. The plates were sealed and incubated at 4° C. for 3 hrs. • ii. After incubation, the plates were washed 3 times with ice-cold wash buffer (50 mM Tris, pH7.4).
• i. Cell membrane was diluted with assay buffer and 100 μl/well was added to 96 round well plates to reach a concentration of 20 μg/well. • ii. 8 concentrations of reference or test compounds were prepared and 50 μl/well was added to 96 round deep well plates. • iii. [3H]-8-Hydroxy-DPAT was diluted with assay buffer to 2 nM (4× final concentration) and 50 μl/well was added to 96 round well plates. • 4. The plate was centrifuged at 1000 rpm for 30 secs and then agitated at 600 rpm, R.T. for 5 min. • 5. The plates were sealed and the plate was incubated at 27° C. for 90 min. • 6. The incubation was stopped by vacuum filtration onto GF/B filter plates followed by 4 times washing with ice-cold wash buffer (50 mM Tris, pH7.4). • 7. The plates were dried at 37° C. for 45 min. • 8. The filter plates were sealed and 40 μl/well of scintillation cocktail was added. • 9. The plate was read by using a Microbeta^2 microplate counter.
• 1. For reference and test compounds, the results were expressed as % Inhibition, using the normalization equation: N=100-100×(U−C2)/(C1−C2), where U is the unknown value, C1 is the average of high controls, and C2 is the average of low controls. • 2. The IC50 was determined by fitting percentage of inhibition as a […] of compound concentrations with Hill equation using XLfit. Results and Discussion

Data set [2] addresses human 5-HT2A receptor (Homo sapiens, UniProt P28223). The data set is described as follows: Human 5-HT2A radioligand binding assay ([3H]-ketanserin). On the procedure: The objective of this study was to evaluate the binding properties of exemplary compounds of Formula I on 5-hydroxytryptamine receptor 2A (5-HT2A).
as §1
UniFilter-96 GF/B plate was pretreated: • i. 50 μl/well of 0.5% (v/v) PEI was added to UniFilter-96 GF/C plates. The plates were sealed and incubated at 4° C. for 3 hrs. • ii. After incubation, the plates were washed 3 times with ice-cold wash buffer (50 mM Tris, pH7.4). • 4. […] Cell membrane was diluted with assay buffer and 330 μl/well was added to 96 round deep well plates to reach a concentration of 20 μg/well. • ii. 8 concentrations of reference or test compounds were prepared and 110 μl/well was added to 96 round deep well plates. • iii. […] The plate was centrifuged at 1000 rpm for 30 secs and then agitated at 600 rpm, R.T. for 5 min. • 6. […] The filter plates were sealed and 40 μl/well of scintillation cocktail was added. • 10. The plate was read by using a Microbeta^2 microplate counter.
• 1. […] The IC50 was determined by fitting percentage of inhibition as a function of compound concentrations with Hill equation using XLfit.

Data set [3] can be described thus: in vitro. As to conditions: rat, microsomes.
Protocol: (§2) The concentrations of parent compounds in reaction systems were evaluated by LC-MS/MS for estimating the stability in pooled human, male rat and male mouse liver microsomes. The in vitro intrinsic clearances of test compounds were determined as well. Protocol
(§3) A master solution in the “Incubation Plate” containing phosphate buffer, ultra-pure H2O, MgCl2 solution and liver microsomes was made according to Table 6. The mixture was pre-warmed at 37° C. water bath for 5 minutes.
(§4) The reaction was started with the addition of 4 μL of 200 μM exemplary test compounds of the application or control compounds to each master solution to get the final concentration of 2 μM. This study was performed in duplicate.
(§5) Aliquots of 50 μL were taken from the reaction solution at 0, 15, 30, 45 and 60 minutes. The reaction solutions were stopped by the addition of 4 volumes of cold methanol with IS (100 nM alprazolam, 200 nM imipramine, 200 nM labetalol and 2 μM ketoprofen). Samples were centrifuged at 3,220 g for 40 minutes. Aliquot of 90 μL of the supernatant was mixed with 90 μL of ultra-pure H2O and then was used for LC-MS/MS analysis.
(§6) All calculations were carried out using Microsoft Excel. Peak area ratios of test compound to internal standard (listed in the below table) were determined from extracted ion chromatograms.
(§7) All calculations were carried out using Microsoft Excel. Peak areas were determined from extracted ion chromatograms. The slope value, k, was determined by linear regression of the natural logarithm of the remaining percentage of the parent drug vs. incubation time curve.
(§8) The in vitro half-life (in vitro t½) was determined from the slope value:
(§9) Conversion of the in vitro t½ (min) into the in vitro intrinsic clearance (in vitro CLint, in μL/min/mg proteins) was done using the following equation (mean of duplicate determinations):
Data set [4] can be described thus: in vitro. To be noted: human, microsomes.
Protocol: as §2, §3, §4, §5, §6, §7, §8, §9
[5] abbreviates: [3H]-8-Hydroxy-DPAT, 27° C., 90 min, read-out: h5-HT1A, IC50.
Setting [6] is: [3H]-ketanserin, 27° C., 90 min, read-out: h5-HT2A, IC50.
Where [7] appears, read: Remaining Percentage after 60 min, human liver microsomes, with cofactors.

Counter-ions that a name gives are not always drawn. Like-named read-outs stand apart in the source and are kept apart here.

Chain of human 5-HT2A receptor (P28223 whole entry): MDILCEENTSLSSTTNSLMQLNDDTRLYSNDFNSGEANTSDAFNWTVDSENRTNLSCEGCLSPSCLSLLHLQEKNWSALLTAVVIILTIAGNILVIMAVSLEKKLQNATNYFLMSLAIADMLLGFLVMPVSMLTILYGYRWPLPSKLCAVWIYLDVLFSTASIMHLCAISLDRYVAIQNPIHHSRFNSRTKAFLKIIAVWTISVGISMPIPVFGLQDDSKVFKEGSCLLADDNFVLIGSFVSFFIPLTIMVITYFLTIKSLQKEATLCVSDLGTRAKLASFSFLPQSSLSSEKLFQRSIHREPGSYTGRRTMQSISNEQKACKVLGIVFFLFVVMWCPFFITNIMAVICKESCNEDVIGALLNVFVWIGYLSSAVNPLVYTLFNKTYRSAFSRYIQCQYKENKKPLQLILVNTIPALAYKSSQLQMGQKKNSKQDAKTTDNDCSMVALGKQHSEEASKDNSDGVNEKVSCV

In the case of `CC(C)N(CCc1c[nH]c2cccc(O)c12)C(C)C` [Compound 7], the IC50 (in general, the concentration needed to halve the response being measured) came to 4.69 µM in data set [1] (setting [5]) and 6.41 µM in data set [2] (setting [6]).
On to `CN(C)CCc1c[nH]c2cccc(OC(=O)CCCC(=O)Oc3cccc4[nH]cc(CCN(C)C)c34)c12` [Compound I-24, Bis(3-(2-(dimethylamino)ethyl)-1H-indol-4-yl) glutarate], for which the results for the half-life at 2 µM in data set [3] and in data set [4] were < 4.51 min and 4.94 min, respectively. Moreover, the microsomal CLint (in general, the rate of metabolic loss divided by the concentration) at 2 µM is > 307 µL/min/mg in data set [3] and 281 µL/min/mg in data set [4]. Further, the share remaining – broadly, what is left of the initial amount, in per cent – at 1 h, 2 µM was determined as 0% in data set [3]; 0% in data set [4] (setting [7]); 1.08% in data set [4] (Remaining Percentage after 60 min, human liver microsomes, without cofactors). Besides, the results for the half-inhibitory concentration (IC50) in data set [1] (setting [5]) and in data set [2] (setting [6]) were 0.336 µM and 0.127 µM, respectively.
With `CC(C)N(CCc1c[nH]c2cccc(OC(=O)CCCC(=O)Oc3cccc4[nH]cc(CCN(C(C)C)C(C)C)c34)c12)C(C)C` [Compound I-37, Bis(3-(2-(diisopropylamino)ethyl)-1H-indol-4-yl) glutarate dihydrochloride], in data set [3], the half-life (commonly the time in which the quantity being followed falls by half) at 2 µM was < 4.51 min; the intrinsic metabolic clearance (microsomal CLint) at 2 µM is > 307 µL/min/mg; the share remaining at 1 h, 2 µM is 0%. In addition, in data set [4], the half-life at 2 µM is < 4.51 min; the microsomal CLint at 2 µM is > 307 µL/min/mg; the share remaining at 1 h, 2 µM stood at 0%. In addition, in data set [1], the IC50 turned out to be 3.96 µM. Moreover, in data set [2], the IC50 came out at 0.547 µM.
`CN(C)CCc1c[nH]c2cccc(O)c12` [Psilocin, 4-hydroxy-N,N-dimethyltryptamine, reference compound]: the amount remaining at 1 h, 2 µM was 62.7% in data set [3] and 70.2% in data set [4] (setting [7]).
As to `CN(C)CCc1c[nH]c2cccc(OP(=O)(O)O)c12` [Psilocybin], the IC50 in data set [1] (setting [5]) was 4.79 µM.
